Test system: IFN-a/Jak1Tyk2
Assay: Co-stimulation assay in lysed whole blood: IFNa (JAK1/TYK2) stimulated STAT1 phosphorylation
Type: cell-based
Conditions: 20 min, lysed human whole blood, IFNa 100 ng/mL + GM-CSF 10 ng/mL, pSTAT1 by flow cytometry
Description: Dilute RBC lysis buffer to 1× in distilled water. Add 2 mL blood to 38 mL of 1×RBC-lysis buffer. Incubate for 15 mins at RT, in dark. Spin at 300 g, 5 mins, to collect the pellet. Re-lyse if necessary. Re-suspend pellet in 5 mL of cRPMI.
Aliquot 80 μL of lysed human blood in to wells of 96 deep-well plate. Add 10 μl of (10× conc.) of different concentrations of compounds to all wells except controls (unstained and unstimulated) and mix it with the help of 100 uL multichannel. Add 10 uL of RPMI media in controls. For dilution of compounds and dilution range please refer Appendix. Incubate on water bath or CO2 incubator for 1 hour at 37° C. Add 10 μl of (10× conc.) of cytokine mix (GM-CSF and IFNa) (final conc. 10 ng/mL of GM-CSF and 100 ng/mL of IFNa) to each well except unstimulated and unstained controls and incubate further for 20 minutes on water bath at 37° C.
Add 900 μL of prewarmed 1× Fix/Lyse solution (Appendix) and mix it properly using 1000 μl multichannel, incubate further on water bath at 37° C. for 10 minutes (which includes time of addition). Centrifuge at 800×g for 5 minutes at 40° C.; remove 900 uL of supernatant and add 900 μL of 1×PBS. Centrifuge at 800×g for 5 minutes at 40° C., remove 900 μL of supernatant. Wash one more time with 900 μL of PBS (optional) and resuspend pellets in 100 uL of PBS.
Disrupt the pellet by gentle tapping and resuspend in 1000 μL of BD Phosflow Perm Buffer III and incubate plate on ice for 30 minutes. Centrifuge plate at 800×g for 5 minutes at 40° C. Wash two more times with 1000 μL of BD Pharmingen Stain Buffer.
Disrupt the pellet by gentle tapping. Resuspend pellets in 100 uL of Stain Buffer and add 5 μL of pSTAT5_AF488 Ab and 5 uL of pSTAT1_PE in all wells except unstained control and mix properly using 200 μl multichannel, incubate overnight at […]. Add 900 μL of wash buffer and centrifuge at 1800 rpm for 3 minutes at […]. Wash one more time with 1000 μL of BD Pharmingen Stain Buffer. Finally resuspend the pellet in 300 uL of BD Pharmingen Stain Buffer. Transfer the cells to 96-well v-bottom plate and acquire the cells in Beckman Coulter CytExpert. Acquiring cells in Flow Cytometer: Keep the threshold value to 250 and cell concentration should not exceed 100-500 cells/μL. Acquire at least 5,000-10,000 cells.
Cytokine dilution: 1) GM-CSF Stock at 100 ug/mL. Prepare an intermediate dilution of 1 ug/mL by adding 2 uL of stock into 198 uL of cRPMI. Further dilute to 100 ng/mL by adding 100 uL of the intermediate stock to 900 uL of cRPMI. 2) IFNa Stock at 200 ug/mL. Dilute IFNa stock 1:200 by adding 5 uL of stock into the 1000 uL of 100 ng/mL GM-CSF working stock as above to give a combined working stock of 1000 ng/mL of IFNa and 100 ng/mL GM-CSF (10×). Keep it on ice until used.
Lyse/Fix buffer preparation: Dilute 5× Lyse/Fix buffer to 1× using MQ water and keep at 37° C. until used.
BD Phosflow perm buffer III: Keep on ice/fridge.

Structure (SMILES)	IC50
CNc1cc(Nc2ccnn2CCO)nc2c(C(=O)NC3CC3)cnn12 [Compound 69, N-cyclopropyl-5-((1-(2-hydroxyethyl)-1H-pyrazol-5-yl)amino)-7-(methylamino)pyrazolo[1,5-a]pyrimidine-3-carboxamide]	1000 to 10000 nM
CCNc1cc(Nc2cc(C)cc(C)c2)nc2c(C(N)=O)cnn12 [Compound 72, 5-((3,5-dimethylphenyl)amino)-7-(ethylamino)pyrazolo[1,5-a]pyrimidine-3-carboxamide]	100 to 1000 nM
CNc1cc(Nc2cc(F)cc(F)c2OC)nc2c(C(=O)NC3CC3F)cnn12 (stereo not shown) [Compound 73, 5-((3,5-difluoro-2-methoxyphenyl)amino)-N-(2-fluorocyclopropyl)-7-(methylamino)pyrazolo[1,5-a]pyrimidine-3-carboxamide]	< 100 nM
CNc1cc(Nc2cccc3c2OCCO3)nc2c(C(=O)NC3CC(C)(O)C3)cnn12 (stereo not shown) [Compound 75, 5-((2,3-dihydrobenzo[b][1,4]dioxin-5-yl)amino)-N-(3-hydroxy-3-methylcyclobutyl)-7-(methylamino)pyrazolo[1,5-a]pyrimidine-3-carboxamide]	< 100 nM
[2H]C([2H])([2H])Nc1cc(Nc2cc(F)cc3c2OCCO3)nc2c(C(N)=O)cnn12 [Compound 76, 5-((7-fluoro-2,3-dihydrobenzo[b][1,4]dioxin-5-yl)amino)-7-((methyl-d3)amino)pyrazolo[1,5-a]pyrimidine-3-carboxamide]	< 100 nM
[2H]C([2H])([2H])NC(=O)c1cnn2c(NC([2H])([2H])[2H])cc(Nc3cc(F)cc4c3OCCO4)nc12 [Compound 78, 5-((7-fluoro-2,3-dihydrobenzo[b][1,4]dioxin-5-yl)amino)-N-(methyl-d3)-7-((methyl-d3)amino)pyrazolo[1,5-a]pyrimidine-3-carboxamide]	100 to 1000 nM
[2H]C([2H])([2H])Nc1cc(Nc2cc(F)cc3c2OCCO3)nc2c(C(=O)N[C@H]3C[C@H]3F)cnn12 [Compound 79, 5-((7-fluoro-2,3-dihydrobenzo[b][1,4]dioxin-5-yl)amino)-N-((1S,2R)-2-fluorocyclopropyl)-7-((methyl-d3)amino)pyrazolo[1,5-a]pyrimidine-3-carboxamide]	< 100 nM
[2H]C([2H])([2H])Nc1cc(Nc2cccc3c2OCCO3)nc2c(C(=O)NCC(C)(C)CO)cnn12 [Compound 84, 5-((2,3-dihydrobenzo[b][1,4]dioxin-5-yl)amino)-N-(3-hydroxy-2,2-dimethylpropyl)-7-((methyl-d3)amino)pyrazolo[1,5-a]pyrimidine-3-carboxamide]	< 100 nM
CNc1cc(Nc2cccn(C)c2=O)nc2c(C(=O)NC3CC(O)C3)cnn12 (stereo not shown) [Compound 86, N-(3-hydroxycyclobutyl)-5-((1-methyl-2-oxo-1,2-dihydropyridin-3-yl)amino)-7-(methylamino)pyrazolo[1,5-a]pyrimidine-3-carboxamide]	> 3000 nM
CNc1cc(Nc2cccn(C)c2=O)nc2c(C(=O)NC3CC(OC)C3)cnn12 (stereo not shown) [Compound 88, N-(3-methoxycyclobutyl)-5-((1-methyl-2-oxo-1,2-dihydropyridin-3-yl)amino)-7-(methylamino)pyrazolo[1,5-a]pyrimidine-3-carboxamide]	> 3000 nM
CNc1cc(Nc2cccc3c2OCCC3)nc2c(C(=O)NCC(C)(C)CO)cnn12 [Compound 90, 5-(chroman-8-ylamino)-N-(3-hydroxy-2,2-dimethylpropyl)-7-(methylamino)pyrazolo[1,5-a]pyrimidine-3-carboxamide]	< 100 nM
CNc1cc(Nc2cccn(C)c2=O)nc2c(C(=O)NC3CC(F)(F)C3)cnn12 [Compound 91, N-(3,3-difluorocyclobutyl)-5-((1-methyl-2-oxo-1,2-dihydropyridin-3-yl)amino)-7-(methylamino)pyrazolo[1,5-a]pyrimidine-3-carboxamide]	1000 to 10000 nM

Next, values leading:

IC50	Structure (SMILES)
100 to 1000 nM	CNc1cc(Nc2cccc3c2OCCO3)nc2c(C(=O)NC3CCOC3)cnn12 (stereo not shown) [Compound 68, 5-((2,3-dihydrobenzo[b][1,4]dioxin-5-yl)amino)-7-(methylamino)-N-(tetrahydrofuran-3-yl)pyrazolo[1,5-a]pyrimidine-3-carboxamide]
100 to 1000 nM	CNc1cc(Nc2ccnn2CC(F)(F)F)nc2c(C(=O)NC3CC3)cnn12 [Compound 70, N-cyclopropyl-7-(methylamino)-5-((1-(2,2,2-trifluoroethyl)-1H-pyrazol-5-yl)amino)pyrazolo[1,5-a]pyrimidine-3-carboxamide]
1000 to 10000 nM	CNC(=O)c1cnn2c(NC)cc(Nc3cc(F)cc(F)c3OC)nc12 [Compound 71, 5-((3,5-difluoro-2-methoxyphenyl)amino)-N-methyl-7-(methylamino)pyrazolo[1,5-a]pyrimidine-3-carboxamide]
> 300 nM	CNc1cc(Nc2cc(F)cc(F)c2OC)nc2c(C(N)=O)cnn12 [Compound 74, 5-((3,5-difluoro-2-methoxyphenyl)amino)-7-(methylamino)pyrazolo[1,5-a]pyrimidine-3-carboxamide]
< 100 nM	[2H]C([2H])([2H])Nc1cc(Nc2cc(Cl)cc3c2OCCO3)nc2c(C(=O)NC3CC3)cnn12 [Compound 77, 5-((7-chloro-2,3-dihydrobenzo[b][1,4]dioxin-5-yl)amino)-N-cyclopropyl-7-((methyl-d3)amino)pyrazolo[1,5-a]pyrimidine-3-carboxamide]
< 100 nM	[2H]C([2H])([2H])Nc1cc(Nc2cc(F)cc3c2OCCO3)nc2c(C(=O)N[C@@H]3C[C@@H]3F)cnn12 [Compound 80, 5-((7-fluoro-2,3-dihydrobenzo[b][1,4]dioxin-5-yl)amino)-N-((1R,2S)-2-fluorocyclopropyl)-7-((methyl-d3)amino)pyrazolo[1,5-a]pyrimidine-3-carboxamide]
100 to 1000 nM	CNc1cc(Nc2cccc3c2CCCO3)nc2c(C(=O)NCC(C)(C)CO)cnn12 [Compound 81, 5-(chroman-5-ylamino)-N-(3-hydroxy-2,2-dimethylpropyl)-7-(methylamino)pyrazolo[1,5-a]pyrimidine-3-carboxamide]
100 to 1000 nM	CNc1cc(Nc2cccc3c2CCCO3)nc2c(C(=O)NC3CC3)cnn12 [Compound 82, 5-(chroman-5-ylamino)-N-cyclopropyl-7-(methylamino)pyrazolo[1,5-a]pyrimidine-3-carboxamide]
100 to 1000 nM	[2H]C([2H])([2H])n1cccc(Nc2cc(NC)n3ncc(C(=O)N[C@H]4C[C@H]4F)c3n2)c1=O [Compound 83, N-((1S,2R)-2-fluorocyclopropyl)-5-((1-(methyl-d3)-2-oxo-1,2-dihydropyridin-3-yl)amino)-7-(methylamino)pyrazolo[1,5-a]pyrimidine-3-carboxamide]
< 100 nM	[2H]C([2H])([2H])n1cccc(Nc2cc(NC)n3ncc(C(=O)N[C@@H]4C[C@@H]4F)c3n2)c1=O [Compound 85, N-((1R,2S)-2-fluorocyclopropyl)-5-((1-(methyl-d3)-2-oxo-1,2-dihydropyridin-3-yl)amino)-7-(methylamino)pyrazolo[1,5-a]pyrimidine-3-carboxamide]
100 to 1000 nM	CNc1cc(Nc2cccn(C)c2=O)nc2c(C(=O)NC3CC(C#N)C3)cnn12 (stereo not shown) [Compound 87, N-(3-cyanocyclobutyl)-5-((1-methyl-2-oxo-1,2-dihydropyridin-3-yl)amino)-7-(methylamino)pyrazolo[1,5-a]pyrimidine-3-carboxamide]
< 100 nM	CNc1cc(Nc2cccc3c2OCCC3)nc2c(C(=O)NC3CCC3)cnn12 [Compound 89, 5-(chroman-8-ylamino)-N-cyclobutyl-7-(methylamino)pyrazolo[1,5-a]pyrimidine-3-carboxamide]
< 100 nM	CNc1cc(Nc2cc(Cl)cc3c2OCCO3)nc2c(C(=O)NCC(C)(C)CO)cnn12 [Compound 92, 5-((7-chloro-2,3-dihydrobenzo[b][1,4]dioxin-5-yl)amino)-N-(3-hydroxy-2,2-dimethylpropyl)-7-(methylamino)pyrazolo[1,5-a]pyrimidine-3-carboxamide]
